Experiments:
Assay type in all cases: in vivo, medaka (Oryzias latipes)
[1] = tested on: gal-expressing neurons in brain nuclei; assay: Number of gal-expressing neurons by in situ hybridization in gonadectomized, sex steroid-treated fish; conditions: 100 ng/ml by immersion for 6 days, n = 5 per group; for ovariectomy-induced increase in the number of gal-expressing neurons in pPMp, effect of steroid treatment: ovariectomized adult females
Excerpt: (§1) For both male and female fish, the gonad was removed under tricaine methane sulfonate anesthesia (0.02%) (Sigma-Aldrich, St. Louis, MO) through a small incision made in the ventrolateral abdominal wall. Immediately after removal of the gonad, the incision was sutured with nylon thread. Sham-operated fish received the same surgical treatment as gonadectomized fish, except for removal of the gonad. After a recovery period of 3 days in saline (0.9% (w/v) NaCl), gonadectomized fish were immersed in water containing 100 ng/ml of KT (Cosmo Bio, Tokyo, Japan) or E2 (Fujifilm Wako Pure Chemical Corporation), or vehicle (ethanol) alone for 6 days and then sampled. Sham-operated fish were treated with vehicle alone and used as controls. In another experiment, females of gal knockout lines with intact ovaries were treated with 100 ng/ml of KT by immersion in water for 10 days and then sampled. The sex steroid concentration used was based on previously reported serum steroid levels in medaka ([Foran et al., 2002]; [Foran et al., 2004]; [Tilton et al., 2003]).
The procedure for single-label in situ hybridization has been described previously ([Hiraki et al., 2012]). In brief, whole brains were fixed in 4% paraformaldehyde (PFA) and embedded in paraffin. Serial coronal sections of 10 μm thickness were cut and hybridized with the DIG-labeled galr1 or galr2 probe or the same DIG-labeled gal probe used for Northern blot analysis. Hybridization signals were visualized by using alkaline phosphatase-conjugated anti-DIG antibody and 5-bromo-4-chloro-3-indolyl phosphate/nitro blue tetrazolium (BCIP/NBT) substrate (Roche Diagnostics). Color development was allowed to proceed for more than 5 hr, or was stopped after 15 min (for quantification of gal expression in males that were castrated and treated with sex steroids) or 1 hr (for quantification of gal expression in females that were ovariectomized and treated with sex steroids) to avoid saturation. All sections in each comparison were processed simultaneously under the same conditions. For galr1, for which hybridization signals were detected throughout the brain and thus the specificity of the staining was somewhat uncertain, in situ hybridization was also performed using a sense probe under conditions identical to those used for the antisense probe. No signal was obtained by the sense probe, confirming that the signals obtained by the antisense probe represented specific staining.
To obtain quantitative data, the number of gal-expressing neurons in each brain nucleus was counted manually. […] In this case, the total number of the neurons in the nuclei was counted. Only intensively labeled neurons with a clearly defined cell body were counted to reduce, if not eliminate, the likelihood of double counting of the neurons split between sections. […]

[2] = tested on: gal expression in the whole brain; assay: Whole-brain gal expression by real-time PCR in gonadectomized, sex steroid-treated fish; conditions: castrated adult males, 100 ng/ml by immersion in water for 6 days, normalized to actb, versus castrated vehicle
Excerpt: as §1, with “In another experiment, females of gal knockout lines with intact ovaries were treated with 100 ng/ml of KT by immersion in water for 10 days and then sampled. The sex steroid concentration used was based on previously reported serum steroid levels in medaka ([Foran et al., 2002]; [Foran et al., 2004]; [Tilton et al., 2003]).” left out
In cases where there were fewer than seven data points per experimental group, individual data points were plotted with the mean ± standard error of the mean (SEM); in cases where there were seven or more data points per experimental group, data were plotted as box and whisker plots by the Tukey method for clarity. In real-time PCR analysis, the expression level of gal (normalized to that of actb) in female whole brain was arbitrarily set to 1, and the relative difference was calculated in each data set to facilitate comparisons among data sets.

adult female medaka = assay: Aggressive behavior test of KT-treated females; conditions: 100 ng/ml KT by immersion for 10 days, main effect of androgen treatment
Excerpt: For both male and female fish, the gonad was removed under tricaine methane sulfonate anesthesia (0.02%) (Sigma-Aldrich, St. Louis, MO) through a small incision made in the ventrolateral abdominal wall. Immediately after removal of the gonad, the incision was sutured with nylon thread. Sham-operated fish received the same surgical treatment as gonadectomized fish, except for removal of the gonad. After a recovery period of 3 days in saline (0.9% (w/v) NaCl), gonadectomized fish were immersed in water containing 100 ng/ml of KT (Cosmo Bio, Tokyo, Japan) or E2 (Fujifilm Wako Pure Chemical Corporation), or vehicle (ethanol) alone for 6 days and then sampled. […]
All behavioral procedures were conducted in 2-l rectangular tanks contained within a large recirculating water system with a constant influx of dechlorinated tap water. […] The partitions were then removed, and the fish were allowed to interact for 20 min while their behavior was recorded as described above. […]
In each test, wild-type, heterozygous, and homozygous siblings reared under the same conditions were used as the comparison group. The total number of each aggressive act (chase, fin display, circle, strike, and bite) performed by the four fish in the tank was counted manually from the video recordings. In addition, the total number of chases by the four fish in the tank was calculated for each 5 min interval during the test period. […]

Structure (SMILES)	number of gal-expressing neurons in aPMp/pPPa ([1]; castrated adult males)	ovariectomy-induced increase in the number of gal-expressing neurons in pPMp, effect of steroid treatment [1]	level of brain gal expression reduced by castration, effect of steroid treatment [2]	number of gal-expressing neurons in pPMp reduced by castration, effect of steroid treatment ([1]; castrated adult males)	number of bites (adult female medaka; adult females of gal knockout lines Δ2 and Δ10, 20 min test)	number of chases (adult female medaka; adult females of gal knockout lines Δ2 and Δ10 with intact ovaries, four fish per tank, 20 min, n = 6 per group)
C[C@]12CC[C@@H]3c4ccc(O)cc4CC[C@H]3[C@@H]1CC[C@@H]2O [E2, estradiol-17β]	increased	significantly attenuated				
C[C@]12CC(=O)[C@H]3[C@@H](CCC4=CC(=O)CC[C@@]43C)[C@@H]1CC[C@@H]2O [KT, 11-ketotestosterone]		further enhanced	restored by treatment with KT	restored by KT treatment	significantly increased	significantly increased
